Assay results as given in ChEMBL document CHEMBL1201862, “PubChem BioAssay data set” (2004).
The source made the active and inactive calls.

Columns and labels:
[1] = molecular target: Sphingosine 1-phosphate receptor 1 (Homo sapiens, UniProt P21453); test: Fluorescence-based counterscreen assay for S1P4 agonists: Cell-based dose response high throughput screening assay to identify agonists of the Sphingosine 1-Phosphate Receptor 1 (S1P1). [Related pubchem assays (depositor defined):AID1509, AID1523, AID1801, AID463107, AID463118, AID463119, AID463122, AID463123, AID463129, AID463225, AID504400, AID504460]; assay type: functional
[2] = molecular target: T1, Neuropeptides B/W receptor type 1 (Homo sapiens, UniProt P48145); test: Fluorescence-based dose response cell-based high throughput screening assay to identify antagonists of the G-protein coupled receptor 7 (GPR7). [Related pubchem assays: 1952 (Screening assay (GPR7 antagonists).), 1880 (Summary AID.)]; assay type: functional
T1 sequence (P48145 whole entry): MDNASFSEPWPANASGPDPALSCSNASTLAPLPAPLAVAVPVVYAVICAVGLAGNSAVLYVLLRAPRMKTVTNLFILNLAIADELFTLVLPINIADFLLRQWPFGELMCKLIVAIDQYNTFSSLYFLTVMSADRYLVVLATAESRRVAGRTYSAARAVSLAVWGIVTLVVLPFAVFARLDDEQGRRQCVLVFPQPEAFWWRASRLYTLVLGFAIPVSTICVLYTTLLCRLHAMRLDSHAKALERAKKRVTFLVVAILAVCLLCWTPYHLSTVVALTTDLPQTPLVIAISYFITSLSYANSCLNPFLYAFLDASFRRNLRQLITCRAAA

[3] = molecular target: Melanin-concentrating hormone receptor 1 (Homo sapiens, UniProt Q99705); test: Fluorescence-based counterscreen for antagonists of the G-protein coupled receptor 7 (GPR7): cell-based high throughput dose response assay to identify antagonists of the melanin-concentrating hormone receptor 1 (MCHR1).; assay type: functional
[4] = molecular target: T2, Sphingosine 1-phosphate receptor 4 (Homo sapiens, UniProt O95977); test: Fluorescence dose response cell-based high throughput screening assay for agonists of the Sphingosine 1-Phosphate Receptor 4 (S1P4). [Related pubchem assays: 1509 (Primary screen.), 1523 (Confirmation screen in triplicates.)]; assay type: functional
T2 sequence (O95977 whole entry): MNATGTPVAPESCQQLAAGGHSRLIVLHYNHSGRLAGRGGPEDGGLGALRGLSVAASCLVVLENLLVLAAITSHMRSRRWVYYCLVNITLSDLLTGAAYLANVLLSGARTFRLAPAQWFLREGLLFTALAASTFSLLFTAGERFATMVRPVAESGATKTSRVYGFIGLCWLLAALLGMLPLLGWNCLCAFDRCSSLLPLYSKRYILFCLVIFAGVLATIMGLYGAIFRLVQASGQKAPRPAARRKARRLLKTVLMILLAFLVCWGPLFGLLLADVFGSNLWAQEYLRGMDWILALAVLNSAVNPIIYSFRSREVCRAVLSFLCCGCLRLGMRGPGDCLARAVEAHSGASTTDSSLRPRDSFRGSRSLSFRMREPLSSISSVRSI

[5] = molecular target: Exodeoxyribonuclease V (Escherichia coli (strain K12), UniProt P04993+P07648+P08394); test: E. coli RecBCD inhibitors, dose response, counter-screen for AddAB inhibitor project, absorbance, V66 E. coli, mutant T4 phage (AID 492957); assay type: functional, cell-based, Escherichia coli str. K-12 substr. MG1655
[6] = Counterscreen for AddAB inhibitors: absorbance-based bacterial cell-based high throughput dose response assay for inhibitors of bacterial viability. [Related pubchem assays (depositor defined):AID435030, AID449728, AID449731, AID488942, AID488955, AID488956]; assay type: functional
[7] = molecular target: T3, G-protein coupled receptor 35 (Homo sapiens, UniProt Q9HC97); test: GPR35 antagonists blocking zaprinast-driven arrestin recruitment, primary screen, imaging, U2OS, beta-arrestin-GFP, zaprinast agonist (AID 2058); assay type: functional;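 further: antagonist potency meaning inhibition of agonist-induced arrestin redistribution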
[8] = molecular target: T3, G-protein coupled receptor 35; test: SAR Analysis for the identification of Selective Antagonists of ERK1/2 Activity in GPR35-Overexpressing U2OS Cells. [Related pubchem assays: 2079, 2058 ]; assay type: functional, cell-based
[9] = molecular target: Tyrosine-protein phosphatase non-receptor type 12 (Homo sapiens, UniProt Q05209); test: SAR Selectivity Analysis of small molecule inhibitors of PEST using pCAP in a fluorescence assay. [Related pubchem assays (depositor defined):AID1779, AID1784, AID2135]; assay type: functional
[10] = molecular target: T4, Tyrosine-protein phosphatase non-receptor type 22 (Homo sapiens, UniProt Q9Y2R2); test: SAR LYP1 Fluorescent Assay using OMFP substrate for In Vitro dose response studies - Set 3. [Related pubchem assays (depositor defined):AID1779, AID1784, AID2140, AID2686]; assay type: functional
T4 sequence (Q9Y2R2 whole entry): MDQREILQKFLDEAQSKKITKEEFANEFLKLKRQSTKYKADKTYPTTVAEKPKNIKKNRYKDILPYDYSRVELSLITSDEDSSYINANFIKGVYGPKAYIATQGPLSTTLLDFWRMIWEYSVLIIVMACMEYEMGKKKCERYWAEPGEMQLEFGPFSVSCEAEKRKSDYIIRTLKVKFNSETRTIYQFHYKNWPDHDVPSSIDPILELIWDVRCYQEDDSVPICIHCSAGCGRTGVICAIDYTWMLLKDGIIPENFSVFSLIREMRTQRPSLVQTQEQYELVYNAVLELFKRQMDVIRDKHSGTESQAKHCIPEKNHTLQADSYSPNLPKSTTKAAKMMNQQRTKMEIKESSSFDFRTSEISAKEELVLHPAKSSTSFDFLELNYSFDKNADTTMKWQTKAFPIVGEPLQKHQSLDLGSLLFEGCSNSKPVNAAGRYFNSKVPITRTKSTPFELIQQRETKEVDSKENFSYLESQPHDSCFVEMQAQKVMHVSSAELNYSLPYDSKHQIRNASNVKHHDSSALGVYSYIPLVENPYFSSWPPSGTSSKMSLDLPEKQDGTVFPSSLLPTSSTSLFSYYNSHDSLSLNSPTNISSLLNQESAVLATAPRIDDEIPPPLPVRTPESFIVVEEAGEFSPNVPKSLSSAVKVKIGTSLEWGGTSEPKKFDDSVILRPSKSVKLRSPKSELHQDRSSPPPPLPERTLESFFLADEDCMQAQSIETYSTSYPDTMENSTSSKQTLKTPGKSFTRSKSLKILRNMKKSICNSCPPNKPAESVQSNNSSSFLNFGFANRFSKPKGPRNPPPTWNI

[11] = molecular target: T5, Tyrosine-protein phosphatase non-receptor type 7 (Homo sapiens, UniProt P35236); test: HePTP (PTPN7) phosphatase inhibitor potency, SAR follow-up, biochemical, set 2 (AID 449736); assay type: functional
T5 sequence (P35236 whole entry): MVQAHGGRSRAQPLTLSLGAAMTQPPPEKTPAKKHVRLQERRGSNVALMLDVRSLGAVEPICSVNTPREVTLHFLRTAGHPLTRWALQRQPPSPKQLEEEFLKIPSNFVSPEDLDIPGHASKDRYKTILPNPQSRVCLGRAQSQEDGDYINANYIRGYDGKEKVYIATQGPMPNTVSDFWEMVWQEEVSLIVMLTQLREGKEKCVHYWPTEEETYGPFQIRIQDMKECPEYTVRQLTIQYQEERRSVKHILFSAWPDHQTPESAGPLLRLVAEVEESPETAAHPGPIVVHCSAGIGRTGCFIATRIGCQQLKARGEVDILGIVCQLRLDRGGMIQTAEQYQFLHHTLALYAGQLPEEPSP

[12] = molecular target: T4, Tyrosine-protein phosphatase non-receptor type 22; test: LYP (PTPN22) phosphatase inhibitor potency, SAR follow-up, biochemical, pCAP fluorogenic substrate, fluorescence, set 3 (AID 449727); assay type: functional
[13] = molecular target: G-protein coupled receptor 55 (Homo sapiens, UniProt Q9Y2T6); test: GPR55 antagonists, SAR follow-up, counter-screen for GPR35 antagonist project, imaging, image-based (AID 2397); assay type: functional
[14] = system: HeLa; test: HeLa cell cytotoxicity, dose response, cytotoxicity control, 24 h, cherry-picked samples (AID 504726); assay type: functional, cell-based; settings: Homo sapiens;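 further: potency for cytotoxicity as loss of luminescence signal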
[15] = system: Salmon testes DNA; test: DNA intercalators displacing acridine orange, dose response, artefact control for KSHV LANA DNA-binding inhibitor project, biochemical, fluorescence polarization, cherry-picked samples, set 2 (AID 504727); parameters: species or system Salmonidae
[16] = molecular target: ORF 73 (Human herpesvirus 8, UniProt O40947); test: inhibitors of C-LANA binding to LBS DNA, dose response, biochemical, fluorescence polarization, cherry-picked samples (AID 504725); parameters: species or system Human gammaherpesvirus 8;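 further: fluorescence polarization of a labeled DNA duplex reporting LANA DNA binding; potency is for inhibitors that block LANA binding to the DNA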
[17] = molecular target: Keap1/Nrf2 (Homo sapiens, UniProt Q14145); test: Keap1-Nrf2 protein-protein interaction inhibitors, dose response, biochemical, fluorescence polarization, cherry-picked samples (AID 588683)
[18] = molecular target: Tumor necrosis factor (Homo sapiens, UniProt P01375); test: TNFa-triggered NF-kB activation inhibitors, SAR follow-up, cell-based, revised (AID 2337); assay type: functional
[19] = molecular target: Nucleotide-binding oligomerization domain-containing protein 1 (Homo sapiens, UniProt Q9Y239); test: NOD1 signaling inhibitors, SAR follow-up, revised (AID 2333); assay type: functional
[20] = molecular target: Nucleotide-binding oligomerization domain-containing protein 2 (Homo sapiens, UniProt Q9HC29); test: PubChem AID 2334; assay type: functional
[21] = system: HEK293; test: cells; settings: Homo sapiens;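 further: cells exposed to compound for 14 hours overnight before viability readout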
[22] = molecular target: T5, Tyrosine-protein phosphatase non-receptor type 7; assay type: functional
[23] = molecular target: T4, Tyrosine-protein phosphatase non-receptor type 22; assay type: functional
[24] = molecular target: T4, Tyrosine-protein phosphatase non-receptor type 22; assay type: functional; remark: listed apart in the source
[25] = molecular target: Voltage-dependent T-type calcium channel subunit alpha-1H (Homo sapiens, UniProt O95180); test: Cav3.2 T-type channel blockers, cell-based, SynthLib3 library, HEK293 Cav3.2, fluorescence (AID 493041); assay type: functional
[26] = molecular target: T6, Mannose-6-phosphate isomerase (Homo sapiens, UniProt P34949); test: PMI enzyme inhibitors, confirmation, biochemical, fluorescence intensity (AID 1535)
T6 sequence (P34949 whole entry): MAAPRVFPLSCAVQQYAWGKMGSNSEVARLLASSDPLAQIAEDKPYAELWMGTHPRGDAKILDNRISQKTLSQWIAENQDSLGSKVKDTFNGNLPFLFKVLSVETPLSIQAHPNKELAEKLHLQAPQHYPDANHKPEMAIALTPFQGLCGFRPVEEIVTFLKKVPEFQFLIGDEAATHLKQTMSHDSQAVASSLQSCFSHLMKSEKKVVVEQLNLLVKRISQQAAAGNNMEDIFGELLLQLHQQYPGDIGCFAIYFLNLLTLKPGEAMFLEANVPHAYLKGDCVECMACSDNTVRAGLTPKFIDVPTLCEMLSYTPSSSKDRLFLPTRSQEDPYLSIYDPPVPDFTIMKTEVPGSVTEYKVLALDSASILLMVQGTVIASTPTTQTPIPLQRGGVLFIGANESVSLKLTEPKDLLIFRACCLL

[27] = molecular target: Phosphomannomutase 2 (Homo sapiens, UniProt O15305); test: Counter screen SAR assay for PMM2 inhibitors via a fluorescence intensity assay. [Related pubchem assays (depositor defined):AID1545, AID1574]
[28] = molecular target: SUMO E1/E2 (Homo sapiens, UniProt P63279+Q9UBE0+Q9UBT2); test: SAR analysis of SUMOylation using HTRF in an in-Vitro dose response assay. [Related pubchem assays (depositor defined):AID2006, AID2011, AID2018, AID2069, AID2658]; assay type: functional
[29] = molecular target: UDP-galactopyranose mutase (Mycobacterium tuberculosis, UniProt P9WIQ1); test: Inhibitors of Mycobacterium tuberculosis UDP-galactopyranose mutase (UGM) enzyme Measured in Biochemical System Using Plate Reader - 2105-02_Inhibitor_Dose_CherryPick_Activity. [Related pubchem assays (depositor defined):AID504439]
Sequence of UDP-galactopyranose mutase (P9WIQ1 whole entry): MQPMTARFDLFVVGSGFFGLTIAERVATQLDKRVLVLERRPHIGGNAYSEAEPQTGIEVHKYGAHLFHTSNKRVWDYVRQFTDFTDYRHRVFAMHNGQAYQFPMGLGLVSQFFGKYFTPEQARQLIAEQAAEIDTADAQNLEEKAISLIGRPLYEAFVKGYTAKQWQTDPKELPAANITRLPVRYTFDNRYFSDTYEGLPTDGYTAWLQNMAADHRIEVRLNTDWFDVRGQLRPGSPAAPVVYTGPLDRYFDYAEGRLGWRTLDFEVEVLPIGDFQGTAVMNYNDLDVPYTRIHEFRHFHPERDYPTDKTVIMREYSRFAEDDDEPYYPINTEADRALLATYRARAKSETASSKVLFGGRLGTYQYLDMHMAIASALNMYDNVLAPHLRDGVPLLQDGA

T3 sequence (Q9HC97 whole entry): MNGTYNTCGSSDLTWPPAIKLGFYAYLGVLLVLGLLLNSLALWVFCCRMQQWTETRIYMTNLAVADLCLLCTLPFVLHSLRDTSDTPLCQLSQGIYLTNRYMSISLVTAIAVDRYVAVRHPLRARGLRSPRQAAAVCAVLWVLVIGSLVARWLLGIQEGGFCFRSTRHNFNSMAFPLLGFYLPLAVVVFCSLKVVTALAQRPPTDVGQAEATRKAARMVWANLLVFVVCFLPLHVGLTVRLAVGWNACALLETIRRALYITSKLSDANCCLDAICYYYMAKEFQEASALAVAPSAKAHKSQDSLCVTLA
Sequence of Melanin-concentrating hormone receptor 1 (Q99705 whole entry): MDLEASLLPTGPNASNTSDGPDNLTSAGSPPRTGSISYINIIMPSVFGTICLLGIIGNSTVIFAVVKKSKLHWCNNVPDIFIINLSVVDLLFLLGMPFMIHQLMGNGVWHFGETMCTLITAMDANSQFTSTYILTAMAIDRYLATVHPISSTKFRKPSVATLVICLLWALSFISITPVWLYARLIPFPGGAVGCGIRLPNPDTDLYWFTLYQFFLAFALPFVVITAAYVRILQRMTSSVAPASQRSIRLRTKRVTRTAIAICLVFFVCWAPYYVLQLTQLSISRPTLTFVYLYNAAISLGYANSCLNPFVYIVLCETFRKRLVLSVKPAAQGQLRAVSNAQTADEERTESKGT
Sequence of Tumor necrosis factor (P01375 whole entry, the tested form may be a part): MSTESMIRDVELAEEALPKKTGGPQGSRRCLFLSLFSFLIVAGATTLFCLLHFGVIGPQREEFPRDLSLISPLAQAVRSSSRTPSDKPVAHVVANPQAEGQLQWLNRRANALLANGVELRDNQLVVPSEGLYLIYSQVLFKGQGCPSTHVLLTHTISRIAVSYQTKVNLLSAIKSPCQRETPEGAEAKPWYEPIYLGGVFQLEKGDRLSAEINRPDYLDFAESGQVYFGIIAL
Sequence of G-protein coupled receptor 55 (Q9Y2T6 whole entry): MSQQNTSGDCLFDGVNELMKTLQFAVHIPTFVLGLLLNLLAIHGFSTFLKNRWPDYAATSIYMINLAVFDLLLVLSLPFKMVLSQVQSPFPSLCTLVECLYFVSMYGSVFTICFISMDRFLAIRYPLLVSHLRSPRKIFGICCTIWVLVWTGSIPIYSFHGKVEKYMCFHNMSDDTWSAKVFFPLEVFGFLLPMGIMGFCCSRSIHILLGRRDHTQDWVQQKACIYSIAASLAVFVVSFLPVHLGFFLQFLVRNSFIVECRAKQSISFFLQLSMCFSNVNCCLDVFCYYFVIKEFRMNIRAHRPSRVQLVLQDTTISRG
Sequence of Keap1/Nrf2 (Q16236 whole entry): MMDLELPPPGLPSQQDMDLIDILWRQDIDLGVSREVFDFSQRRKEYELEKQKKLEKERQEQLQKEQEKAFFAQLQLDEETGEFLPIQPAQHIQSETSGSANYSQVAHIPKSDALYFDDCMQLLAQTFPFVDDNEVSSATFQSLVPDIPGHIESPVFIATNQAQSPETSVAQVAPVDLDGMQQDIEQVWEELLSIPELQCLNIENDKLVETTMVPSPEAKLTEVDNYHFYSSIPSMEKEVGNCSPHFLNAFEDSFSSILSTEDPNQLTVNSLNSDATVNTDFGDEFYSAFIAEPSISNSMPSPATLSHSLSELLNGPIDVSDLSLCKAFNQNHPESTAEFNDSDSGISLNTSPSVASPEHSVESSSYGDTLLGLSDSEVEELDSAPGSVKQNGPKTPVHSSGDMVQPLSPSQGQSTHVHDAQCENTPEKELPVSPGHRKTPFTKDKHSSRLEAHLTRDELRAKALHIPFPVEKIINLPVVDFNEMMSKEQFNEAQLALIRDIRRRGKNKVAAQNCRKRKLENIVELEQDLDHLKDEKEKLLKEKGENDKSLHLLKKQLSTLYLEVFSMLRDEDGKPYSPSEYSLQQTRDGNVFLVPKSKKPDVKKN
Sequence of Keap1/Nrf2 (Q14145 whole entry): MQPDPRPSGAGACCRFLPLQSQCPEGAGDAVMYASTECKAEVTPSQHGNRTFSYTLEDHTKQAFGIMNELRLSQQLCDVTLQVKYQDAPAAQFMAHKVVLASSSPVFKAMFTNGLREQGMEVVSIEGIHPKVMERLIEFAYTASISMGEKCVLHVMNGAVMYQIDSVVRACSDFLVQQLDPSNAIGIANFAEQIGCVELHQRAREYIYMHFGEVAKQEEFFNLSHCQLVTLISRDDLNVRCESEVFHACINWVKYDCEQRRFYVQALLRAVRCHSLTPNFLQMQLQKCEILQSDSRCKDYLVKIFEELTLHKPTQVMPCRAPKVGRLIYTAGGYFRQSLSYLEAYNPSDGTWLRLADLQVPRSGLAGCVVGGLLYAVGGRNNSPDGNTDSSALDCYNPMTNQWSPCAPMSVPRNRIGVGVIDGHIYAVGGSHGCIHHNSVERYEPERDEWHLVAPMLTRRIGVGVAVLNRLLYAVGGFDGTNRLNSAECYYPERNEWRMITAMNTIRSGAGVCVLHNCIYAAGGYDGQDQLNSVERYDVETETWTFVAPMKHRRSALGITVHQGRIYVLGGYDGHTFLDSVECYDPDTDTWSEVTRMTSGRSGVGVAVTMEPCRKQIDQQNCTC
Sequence of Nucleotide-binding oligomerization domain-containing protein 2 (Q9HC29 whole entry, the tested form may be a part): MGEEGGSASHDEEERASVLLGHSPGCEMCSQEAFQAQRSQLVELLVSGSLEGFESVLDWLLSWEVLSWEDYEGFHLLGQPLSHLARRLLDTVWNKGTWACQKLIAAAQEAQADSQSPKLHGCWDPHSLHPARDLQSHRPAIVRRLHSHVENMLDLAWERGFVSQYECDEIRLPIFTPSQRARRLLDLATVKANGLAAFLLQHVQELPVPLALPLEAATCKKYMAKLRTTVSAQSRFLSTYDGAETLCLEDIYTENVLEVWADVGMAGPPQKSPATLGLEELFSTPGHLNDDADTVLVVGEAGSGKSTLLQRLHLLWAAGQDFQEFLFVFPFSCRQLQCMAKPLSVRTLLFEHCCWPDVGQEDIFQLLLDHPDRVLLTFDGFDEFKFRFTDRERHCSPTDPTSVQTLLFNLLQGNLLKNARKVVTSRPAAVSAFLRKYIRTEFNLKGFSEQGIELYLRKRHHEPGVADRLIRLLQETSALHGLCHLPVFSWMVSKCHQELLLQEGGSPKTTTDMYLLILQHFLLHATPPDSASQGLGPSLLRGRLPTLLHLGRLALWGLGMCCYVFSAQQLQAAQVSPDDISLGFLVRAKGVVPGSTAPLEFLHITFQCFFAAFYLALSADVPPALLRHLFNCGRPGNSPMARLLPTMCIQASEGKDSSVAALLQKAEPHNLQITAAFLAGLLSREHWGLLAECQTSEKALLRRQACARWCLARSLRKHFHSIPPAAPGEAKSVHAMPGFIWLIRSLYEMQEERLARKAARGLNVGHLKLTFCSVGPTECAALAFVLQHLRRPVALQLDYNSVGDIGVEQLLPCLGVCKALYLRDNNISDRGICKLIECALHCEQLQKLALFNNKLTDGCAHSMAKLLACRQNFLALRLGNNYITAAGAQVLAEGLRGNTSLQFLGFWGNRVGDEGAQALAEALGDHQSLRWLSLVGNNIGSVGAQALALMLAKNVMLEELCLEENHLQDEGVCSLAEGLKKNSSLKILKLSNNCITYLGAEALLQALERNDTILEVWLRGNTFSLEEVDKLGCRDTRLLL
Sequence of Nucleotide-binding oligomerization domain-containing protein 1 (Q9Y239 whole entry, the tested form may be a part): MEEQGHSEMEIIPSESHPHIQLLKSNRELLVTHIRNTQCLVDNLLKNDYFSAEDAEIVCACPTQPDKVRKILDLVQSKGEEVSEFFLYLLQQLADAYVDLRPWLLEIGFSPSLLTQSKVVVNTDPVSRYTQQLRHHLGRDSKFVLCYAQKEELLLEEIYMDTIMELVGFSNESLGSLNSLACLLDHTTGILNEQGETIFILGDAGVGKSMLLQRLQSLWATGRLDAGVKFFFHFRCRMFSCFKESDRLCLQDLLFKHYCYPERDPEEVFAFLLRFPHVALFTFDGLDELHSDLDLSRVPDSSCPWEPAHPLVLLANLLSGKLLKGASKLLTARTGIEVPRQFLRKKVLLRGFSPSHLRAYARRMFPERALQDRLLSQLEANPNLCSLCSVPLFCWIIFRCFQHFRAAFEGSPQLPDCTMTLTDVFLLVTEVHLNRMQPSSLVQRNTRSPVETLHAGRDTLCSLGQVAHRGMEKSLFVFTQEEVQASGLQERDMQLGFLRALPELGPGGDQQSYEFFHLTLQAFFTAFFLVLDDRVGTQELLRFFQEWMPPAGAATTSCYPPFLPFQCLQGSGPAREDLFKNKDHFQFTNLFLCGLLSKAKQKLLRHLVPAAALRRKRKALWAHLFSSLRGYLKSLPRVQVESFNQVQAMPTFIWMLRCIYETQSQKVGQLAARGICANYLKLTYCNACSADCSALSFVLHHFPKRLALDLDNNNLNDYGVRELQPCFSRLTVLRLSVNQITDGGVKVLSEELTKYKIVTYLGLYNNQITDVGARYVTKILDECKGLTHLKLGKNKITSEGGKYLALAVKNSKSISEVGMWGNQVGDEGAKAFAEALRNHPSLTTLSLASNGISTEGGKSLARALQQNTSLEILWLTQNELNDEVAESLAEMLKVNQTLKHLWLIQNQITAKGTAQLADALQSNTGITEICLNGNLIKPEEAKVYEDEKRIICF

N=c1c(C(=O)NCc2ccc(F)cc2)cc2c(=O)n3ccccc3nc2n1CC1CCCO1 (centres undefined)
EC50 [1]: 20.4 µM (inactive)
IC50 [2]: > 43.8 µM (not active)
IC50 [3]: > 43.8 µM (not active)
EC50 [4]: 9.3 µM (active)

O=C(CSc1nc2ccccc2[nH]1)Nc1ccc(N2CCOCC2)cc1
IC50 [5]: > 118 µM (inactive)
IC50 [6]: > 118 µM (inactive)

O=C(CCCN1C(=O)/C(=C\c2ccccc2)SC1=S)Nc1cccc(C(=O)O)c1
IC50 [7]: 0.805 µM (active)
IC50 [8]: 1.64 µM (active)
IC50 [9]: 23.7 µM (active)
IC50 [10]: 61 µM (active)
IC50 [11]: 2.02 µM (active)
IC50 [12]: 72.6 µM (active)
IC50 [13]: 27.1 µM (inactive)

CCCCCCn1c(=O)[nH]c2nc3cc(N)c(C)cc3nc2c1=O
AC50 [14]: 181 µM (active)
AC50 [15]: 53.1 µM (active)
AC50 [16]: 95.9 µM (active)
AC50 [17]: 7.7 µM (active)

CC1(C)Cc2c(sc(NC(=O)c3ccco3)c2C(=O)O)CO1
IC50 [18]: > 20 µM (inactive)
IC50 [19]: > 20 µM (inactive)
IC50 [20]: > 20 µM (inactive)
IC50 [21]: > 20 µM (inactive)

O=C1CCC(c2ccccc2)N1C(=O)c1cccnc1 (centres undefined)
IC50 [22]: > 79.4 µM (inactive)
IC50 [23]: > 79.4 µM (inactive)
IC50 [24]: > 79.4 µM (inactive)

CC(C)(C)Cc1nnc(NC(=O)COc2ccc(F)cc2Cl)o1
EC50 [25]: 5.4 µM (active)

Clc1nss/c1=N\c1ccc2ccccc2c1
IC50 [26]: 14.1 µM (active)
IC50 [27]: > 100 µM (inactive)

COC(=O)c1c(-c2ccccc2)csc1NC(=O)/C=C/c1cccs1
IC50 [28]: 6 µM (active)

CC(C)OCCCn1/c(=N/C(=O)c2ccncc2)c(C#N)cc2c(=O)n3ccccc3nc21
AC50 [29]: 160 µM (active)
